Laboratory results as given in PubChem BioAssay (NCI).
Values joined by “and” are separate entries in the source; they are usually repeats but may differ in a detail not shown here. Equal entries are not always repeated.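 Interpolation was linear, between the two tested concentrations surrounding the appropriate level; five concentrations were tested over 48 hours in 96-well plates. Here, GI50 denotes the concentration required for 50% inhibition of growth. TGI is the concentration that stops growth completely.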

Key:
Assay in all cases: inhibition of tumour cell growth, NCI panel, 48 h
[1] = test system: UO-31 renal
[2] = test system: UACC-257 melanoma
[3] = test system: T-47D breast
[4] = test system: SN12C renal
[5] = test system: SK-OV-3 ovarian
[6] = test system: SW-620 colon
[7] = test system: HOP-62 NSCLC
[8] = test system: SF-539 CNS
[9] = test system: OVCAR-5 ovarian
[10] = test system: 786-0 renal
[11] = test system: BT-549 breast

Compound | TGI [1] | TGI [2] | TGI [3] | TGI [4] | TGI [5] | TGI [6] | TGI [7] | TGI [8] [µM] | TGI [9] | TGI [10] | TGI [11] | GI50 [7] [µM] | GI50 [8] [µM] | GI50 [9] [µM] | GI50 [1] [µM] | GI50 [2] [µM] | GI50 [4] [µM] | GI50 [5] [µM] | GI50 [6] [µM]
Cc1ccc(S(=O)(=O)N2CCCSCC2)cc1 | > 100 µM | > 100 µM | > 100 µM | > 100 µM | > 100 µM | > 100 µM | – | – | – | – | – | – | – | – | – | – | – | – | –
CC1(C)CCC[C@]2(C)[C@H]3[C@H](C#N)c4cc(O)c(O)cc4O[C@@]3(C)CC[C@@H]12 | > 10 µM | > 10 µM | – | > 10 µM | > 10 µM | > 10 µM | > 10 µM | > 10 | > 10 µM | > 10 µM | – | – | – | – | – | – | – | – | –
COc1ccccc1C(=O)c1c(NCc2ccccc2)c(=O)c1=O | > 100 µM | > 100 µM | – | > 100 µM | > 100 µM | 37.8 µM | > 100 µM | – | > 100 µM | > 100 µM | > 100 µM | – | – | – | – | – | – | – | –
Cc1nc2c(=O)n(C)ncc2[nH]1 | > 100 µM | > 100 µM | > 100 µM | > 100 µM | – | > 100 µM | > 100 µM | > 100 | > 100 µM | > 100 µM | > 100 µM | – | – | – | – | – | – | – | –
Cc1ccc2c(c1)-c1nc(N)c(C#N)c(-c3ccccc3)c1CCS2(=O)=O | > 100 µM | > 100 µM | > 100 µM | > 100 µM | – | > 100 µM | > 100 µM | – | > 100 µM | 44.1 µM | > 100 µM | – | – | – | – | – | – | – | –
COc1ccc(SCc2cc(OCc3ccccc3)c(OCc3ccccc3)c(OCc3ccccc3)c2)cc1 | 3.18 µM | 3.09 µM | – | 3.49 µM | 3.18 µM | – | – | 3.45 | 3.4 µM | 2.89 µM | 4.59 µM | – | – | – | – | – | – | – | –
C(=C\c1ccco1)/c1cccc(/C=C/c2ccco2)n1 | > 50 µM | > 50 µM | – | > 50 µM | > 50 µM | > 50 µM | > 50 µM | > 50 | > 50 µM | > 50 µM | > 50 µM | – | – | – | – | – | – | – | –
Cc1ccccc1S(=O)(=O)Nn1cnc2ccc(S(=O)(=O)Nc3ccc(Cl)cc3)cc2c1=O | > 100 µM | > 100 µM | – | > 100 µM | > 100 µM | > 100 µM | > 100 µM | > 100 | > 100 µM | > 100 µM | > 100 µM | – | – | – | – | – | – | – | –
CCN(CC)C(=O)C(C)n1cc(C)c(=O)[nH]c1=O (stereo not drawn) | > 100 µM | – | – | > 100 µM | – | > 100 µM | > 100 µM | > 100 | > 100 µM | > 100 µM | – | – | – | – | – | – | – | – | –
CC(=O)O[C@H]1[C@H](OC(=O)CC(C)(O)CC(=O)O)C[C@]2(C)C3=C(CCC2C1(C)C)[C@]1(C)CC[C@H]([C@H]2CC[C@H](C(C)(C)O)OC2O)[C@@]1(C)[C@@H](O)C3 (stereo partly drawn) | 25.8 µM | 35.4 µM | 40.2 µM | 32.1 µM | 30.6 µM | 27.2 µM | 32.7 µM | – | 31.7 µM | 37.3 µM | 29 µM | – | – | – | – | – | – | – | –
O=C1c2ccc(O)c(O)c2C(=O)c2c(O)ccc(O)c21 | 42.8 µM | 49.3 µM | – | 56.7 µM | 72.8 µM | > 100 µM | 65.4 µM | 49.2 | 76.5 µM | > 100 µM | – | – | – | – | – | – | – | – | –
CC1=C(C)Cc2c(O)ccc(O)c2C1 | 30.6 µM | 32.2 µM | 63.4 µM | 45.8 µM | > 100 µM | 37.6 µM | 50.1 µM | 35.1 | 38.6 µM | – | – | – | – | – | – | – | – | – | –
C=C1C2C[C@@H]3O[C@H]4C[C@H]5O[C@@]6(C[C@@H]7O[C@]8(C[C@H](C)[C@@H]9O[C@@H]%10CC(CO)O[C@@H]%10C[C@@H]9O8)C[C@H](C)[C@@H]7O6)C[C@H]5O[C@H]4[C@H](C)[C@H]3OC(=O)C[C@H]3CC[C@@H]4OC5[C@H]6O[C@]7(CC[C@H]8CC(=C)[C@H](CC[C@@H](C[C@H]1C)O2)O8)CC6O[C@@H]5[C@@H](O7)[C@H]4O3 (stereo partly drawn) | > 1 µM | > 1 µM | – | > 1 µM | > 1 µM | > 1 µM | > 1 µM | – | > 1 µM | > 0.413 µM | < 0.0001 µM | – | – | – | – | – | – | – | –
COC(=O)C1OC(O[C@H]2CC[C@]3(C)[C@H]4CC=C5[C@@H]6CC(C)(C)CC[C@]6(C(=O)OC6OCC(O)C(O)C6OC6OC(C)C(OC7OCC(O)C(O)C7O)C(O)C6O)CC[C@@]5(C)[C@]4(C)CC[C@H]3C2(C)C)C(O)C(O)C1O (stereo partly drawn) | 26.5 µM and 36 µM | 27.4 µM and 29.7 µM | > 100 µM and 54.2 µM | 27.1 µM and 31.2 µM | 35.9 µM and 36.7 µM | 39.5 µM and 48.7 µM | 33.2 µM and 32.6 µM | – | 31.4 µM and 42.8 µM | 29.2 µM and 32.4 µM | 34.1 µM and 33.2 µM | – | – | – | – | – | – | – | –
CCN1CCC(O)(c2ccc(Cl)cc2)C(C(=O)c2ccc(Cl)cc2)C1 (stereo not drawn) | > 100 µM | > 100 µM | – | > 100 µM | > 100 µM | > 100 µM | – | > 100 | > 100 µM | > 100 µM | – | – | – | – | – | – | – | – | –
CC(=O)c1cc2ccccc2oc1=O | > 100 µM | > 100 µM | – | > 100 µM | – | > 100 µM | > 100 µM | > 100 | > 100 µM | > 100 µM | > 100 µM | – | – | – | – | – | – | – | –
OC(c1cc(C23CC4CC(CC(C4)C2)C3)nc2c(Cl)cc(Cl)cc12)C1CCCCN1 (stereo not drawn) | 2.35 µM | 3.53 µM | – | 3.13 µM | – | – | 2.97 µM | 3.22 | 3.17 µM | 3.21 µM | – | – | – | – | – | – | – | – | –
COc1ccc(-c2cc3[nH]nc(N)c3c(=O)o2)cc1 | > 100 µM | > 100 µM | – | > 100 µM | – | > 100 µM | – | > 100 | > 100 µM | – | – | – | – | – | – | – | – | – | –
Nc1nc2c3nc(Nc4ccccc4)sc3nc(=O)n2c2sc(Nc3ccccc3)nc12 | > 100 µM | > 100 µM | – | > 100 µM | > 100 µM | > 100 µM | > 100 µM | > 100 | – | > 100 µM | – | – | – | – | – | – | – | – | –
COc1cc2c(cc1OCCCC(=O)Nc1ccc3ccc4cccc5ccc1c3c45)N=C[C@@H]1CCCN1C2=O | – | 0.104 µM | – | 0.0423 µM | 46.9 µM | 0.0483 µM | 1.74 µM | < 0.01 | < 0.0506 µM | – | – | < 0.01 | < 0.01 | < 0.01 | < 0.0158 | 0.0368 | < 0.0136 | 10.3 | < 0.0126
